Experimental data as given in PMC3610371, “Subamolide B Isolated from Medicinal Plant Cinnamomum subavenium Induces Cytotoxicity in Human Cutaneous Squamous Cell Carcinoma Cells through Mitochondrial and CHOP-Dependent Cell Death Pathways” (Evidence-based Complementary and Alternative Medicine : eCAM, 2013).
Several values for one entry are separate records, joined by “and”; a condition that tells them apart may be missing. Identical values can stand only once.

Tests used:
SCC12 cells [1] = experiment: SCC12 cell viability after 24 h treatment (Supplementary Figure 3); type: cell-based; conditions: Homo sapiens
Protocol: The effect of subamolide B on cell viability was mostly evaluated using CellTiter 96 AQueous Non-Radioactive Cell Proliferation Assay (MTS assay) kit (Promega, Madison, WI, USA) as previously described. Alternatively, propidium iodide (PI) exclusion assay was employed to determine cell viability. In brief, 4 × 10^5 SCC12 cells were seeded onto 6-well dishes and were subjected to 48 h treatment with subamolide B. Cells were then trypsinized, collected by centrifugation, and washed twice with PBS. Subsequently, cells were stained with 10 μg/ml of PI in PBS for 15 min in the dark, followed by flow cytometry analysis to determine the levels of PI incorporation.
Supplementary Figure Legends (Yang et al.) […]
Supplementary Figure 3. SCC12 cells were resistant to imiquimod-induced cytotoxicity.
SCC12 cells were treated with increasing doses of subamolide B (0~20 µM) (A) or
imiquimod (0~50 µg/ml) (B) for 24 h, and the viability of imiquimod-treated cells was
evaluated thereafter. It is noted that 20 µM (6.897 µg/ml) of subamolide B reduced the
viability of SCC12 cells to 50.47±5.89% compared to the drug-untreated control, whereas
65.00±4.32% of SCC12 cells were still viable after treatment with 50 µg/ml of imiquimod.

A375 (melanoma) cells = experiment: Cell viability determination via MTS assay, A375; type: cell-based; conditions: Homo sapiens, A-375; A375, 48 h treatment; read-out: IC50 (reduce cell viability by 50%)
Protocol: (§1) The human cutaneous squamous cell carcinoma cell line SCC12 (kindly provided by Prof. Xiaoqi Wang, Northwestern University, USA) was grown in DMEM/F-12 (1 : 1) medium. The human malignant melanoma cell line A375 (ATCC number: CRL-1619), human epidermoid carcinoma cell line A-431 (ATCC number: CRL-1555), and HEK293T cells (ATCC number: CRL-11268) were grown in DMEM medium, whereas the human basal cell carcinoma cell line BCC-1/KMC [25] was cultured in RPMI1640 medium. […]
(§2) The effect of subamolide B on cell viability was mostly evaluated using CellTiter 96 AQueous Non-Radioactive Cell Proliferation Assay (MTS assay) kit (Promega, Madison, WI, USA) as previously described. […]
(§3) Figure 1 Cytotoxic effect of subamolide B on human skin cancer cell lines. […] 14 days later, the extent of subamolide B-mediated repression of SCC12 colony formation was evaluated by the numbers of colonies grown on culture dishes. […] (c) Quantitative analysis of subamolide B-mediated repression of SCC12 colony formation. The numbers of colonies shown in (b) were counted and the results were presented as the percentage of drug-treated groups compared to the drug-free controls. ***P < 0.001.

[2] = tested on: A-431 (epidermoid carcinoma) cells; experiment: Cell viability determination via MTS assay, A-431; type: cell-based; conditions: Homo sapiens; A-431, 48 h treatment; read-out: IC50 (reduce cell viability by 50%)
Protocol: as §1, §2, §3

[3] = tested on: BCC-1/KMC (basal cell carcinoma) cells; experiment: Cell viability determination via MTS assay, BCC-1/KMC; type: cell-based; conditions: Homo sapiens, BCC1, 48 h treatment, read-out: IC50 (reduce cell viability by 50%)
Protocol: as §1, §2, §3

[4] = tested on: SCC12 (cutaneous squamous cell carcinoma) cells; experiment: Cell viability determination via MTS assay, SCC12; type: cell-based; conditions: Homo sapiens; SCC12, 48 h treatment; read-out: IC50 (reduce cell viability by 50%)
Protocol: as §1, §2, §3

[5] = tested on: CCD-966SK normal skin fibroblasts; experiment: Cell viability determination via MTS assay, CCD-966SK; type: cell-based; conditions: Homo sapiens, Skin fibroblast, 48 h treatment, read-out: IC50 (reduce cell viability by 50%)
Protocol: as §1, §2, §3

[6] = tested on: WS1 normal skin fibroblasts; experiment: Cell viability determination via MTS assay, WS1; type: cell-based; conditions: Homo sapiens, Skin fibroblast; WS1, 48 h treatment; read-out: IC50 (reduce cell viability by 50%)
Protocol: as §1, §2, §3

[7] = tested on: IMR-90 normal lung fibroblasts; experiment: Cell viability determination via MTS assay, IMR-90; type: cell-based; conditions: Homo sapiens; IMR-90, 48 h treatment; read-out: IC50 (reduce cell viability by 50%)
Protocol: as §1, §2, §3

[8] = tested on: MRC-5 normal lung fibroblasts; experiment: Cell viability determination via MTS assay, MRC-5; type: cell-based; conditions: Homo sapiens, MRC5; MRC-5, 48 h treatment; read-out: IC50 (reduce cell viability by 50%)
Protocol: as §1, §2, §3

[9] = tested on: WI-38 normal lung fibroblasts; experiment: Cell viability determination via MTS assay, WI-38; type: cell-based; conditions: Homo sapiens; WI-38, 48 h treatment; read-out: IC50 (reduce cell viability by 50%)
Protocol: as §1, §2, §3

SCC12 cells [10] = experiment: Colony formation assay; type: cell-based, human; conditions: 24 h treatment, then drug-free media 14 days
Protocol: The effect of subamolide B on the long-term survival of SCC12 cells was assessed using colony formation assay in accordance with the reported procedure. […] […] The colonies composed of 50 or more cells were counted under microscopy. At least three independent assays were performed to calculate the numbers of colonies for statistical analysis.
Figure 1 Cytotoxic effect of subamolide B on human skin cancer cell lines. (a) Dose-dependent cytotoxicity of subamolide B. Human skin cancer cell lines, including A375 (melanoma), A-431 (epidermoid carcinoma), BCC-1/KMC (basal cell carcinoma) and SCC12 (cutaneous squamous cell carcinoma), normal human skin fibroblast cell lines CCD-966SK and WS1, and normal human lung fibroblast cell lines IMR-90, MRC-5, and WI-38 were treated with graded doses of subamolide B (0~20 μM), followed by cell viability determination via MTS assay as described in Section 2. […] 14 days later, the extent of subamolide B-mediated repression of SCC12 colony formation was evaluated by the numbers of colonies grown on culture dishes. […] (c) Quantitative analysis of subamolide B-mediated repression of SCC12 colony formation. The numbers of colonies shown in (b) were counted and the results were presented as the percentage of drug-treated groups compared to the drug-free controls. ***P < 0.001.

SCC12 cells [11] = experiment: Annexin-V/propidium iodide dual staining assay (flow cytometry); type: cell-based, human; conditions: subamolide B 20 μM, 24 h
Protocol: Annexin V/PI dual staining assay was employed to determine the involvement of apoptosis in subamolide B-induced cell death, using ApoTarget Annexin-V-FITC Apoptosis kit (Biosource, Camarillo, CA, USA) as described previously. If required, the pan-caspase inhibitor z-VAD-fmk (20 μM) was added to SCC12 cells 2 h before subamolide B treatment.
Figure 2 Apoptosis is partly responsible for subamolide B-induced SCC12 cell death. ((a), (b)) Subamolide B induces dose- and time-dependent proteolytic processing/activation of caspases-8, -9, -4, and -3. […] Subamolide B (20 μM) was used to treat SCC12 cells for 24 h without or with cotreatment of the pan-caspase inhibitor z-VAD-fmk (20 μM). […] The levels of apoptotic cells were indicated as the percentage of all cell populations as shown in (d). ***P < 0.001. […]

[12] = tested on: ATF6 transcriptional activity; experiment: ATF6 transcriptional activity luciferase reporter assay (p5xATF6-GL3); type: cell-based; conditions: Homo sapiens, SCC12 cells, 24 h, vs drug-untreated control
Excerpt: The ATF6 activity reporter plasmid p5xATF6-GL3 (Addgene plasmid 11976) carries five ATF6 response elements in tandem to drive the expression of firefly luciferase. The human CHOP promoter, which encompasses the region between −947 and +30 (+1 is the transcriptional start site) was PCR-amplified from the genomic DNA of peripheral blood mononuclear cells using the primer pair 5′-[…]-3′ (forward) and 5′-[…]-3′ (reverse). The 978-bp fragment was cloned into the luciferase reporter plasmid pGL4.18 vector (Promega, Madison, WI, USA) to generate the human CHOP promoter reporter plasmid (pCHOP-Luc). Luciferase activity assay was performed using Dual-Luciferase Reporter assay kit (Promega, Madison, WI, USA) as reported previously. Luciferase activity was normalized to Renilla luciferase activity, and final results were expressed as fold induction of the luciferase activity after subamolide B stimulation compared to that of drug-untreated control.
Figure 5 Subamolide B is an ER stress inducer. (a) Subamolide B upregulates signature ER stress markers GRP78 and CHOP. […] The level of CHOP mRNA in SCC12 cells after 24 h treatment with subamolide B (0~20 μM) was assessed by semiquantitative RT-PCR analysis. β-actin was used as the loading control. […] ATF6 transcriptional activity was then evaluated by luciferase activity assay. […]

SMILES | viability at 50 µg/mL (SCC12 cells [1]; SCC12, imiquimod 50 μg/ml, 24 h, read-out: SCC12 cell viability, % of the drug-untreated control) [%] | IC50 (A375 (melanoma) cells) [µM] | IC50 [2] [µM] | IC50 [3] [µM] | IC50 [4] [µM] | IC50 [5] [µM] | IC50 [6] [µM] | IC50 [7] [µM] | IC50 [8] [µM] | IC50 [9] [µM] | SCC12 colony formation, % of the drug-untreated control (SCC12 cells [10]; 10 μM) [%] | SCC12 colony formation, % of the drug-untreated control (SCC12 cells [10]; 20 μM) [%] | level of apoptotic cells (percentage of all cell populations) (SCC12 cells [11]; cotreated with z-VAD-fmk 20 μM) [%] | level of apoptotic cells (percentage of all cell populations) (SCC12 cells [11]; without z-VAD-fmk) [%] | fold induction at 10 µM [12] | viability at 20 µM (SCC12 cells [1]; SCC12, subamolide B 20 μM (6.897 μg/ml), 24 h, read-out: SCC12 cell viability, % of the drug-untreated control) [%] | IC50 (SCC12 cells [1]; SCC12, 24 h treatment, read-out: IC50 (SCC12 cytotoxicity))
CC(C)Cn1cnc2c(N)nc3ccccc3c21 [imiquimod, reference compound] | 65 ± 4.32 |  |  |  |  |  |  |  |  |  |  |  |  |  |  |  | 
CCCCCCCCCCCCC/C=C1/C(=O)O[C@@](C)(OC)[C@@H]1O [subamolide B, (3E,4R,5R)-3-tetradecylidene-4-hydroxy-5-methoxy-5-methyl-butanolide] |  | 17.6 | 13.3 | > 20 | 9.12 | > 20 | > 20 | > 20 | > 20 | > 20 | 58.93 ± 2.40 | 28.20 ± 10.87 | 18.6 ± 0.42 | 32.55 ± 3.65 | 16.1 ± 2.06 | 50.5 ± 5.89 | 6.9 µg/mL and 20.3 µM
